Assay [1] deals with T1, wild-type androgen receptor (AR) (Homo sapiens, UniProt P10275).
T1 sequence (P10275 1-920): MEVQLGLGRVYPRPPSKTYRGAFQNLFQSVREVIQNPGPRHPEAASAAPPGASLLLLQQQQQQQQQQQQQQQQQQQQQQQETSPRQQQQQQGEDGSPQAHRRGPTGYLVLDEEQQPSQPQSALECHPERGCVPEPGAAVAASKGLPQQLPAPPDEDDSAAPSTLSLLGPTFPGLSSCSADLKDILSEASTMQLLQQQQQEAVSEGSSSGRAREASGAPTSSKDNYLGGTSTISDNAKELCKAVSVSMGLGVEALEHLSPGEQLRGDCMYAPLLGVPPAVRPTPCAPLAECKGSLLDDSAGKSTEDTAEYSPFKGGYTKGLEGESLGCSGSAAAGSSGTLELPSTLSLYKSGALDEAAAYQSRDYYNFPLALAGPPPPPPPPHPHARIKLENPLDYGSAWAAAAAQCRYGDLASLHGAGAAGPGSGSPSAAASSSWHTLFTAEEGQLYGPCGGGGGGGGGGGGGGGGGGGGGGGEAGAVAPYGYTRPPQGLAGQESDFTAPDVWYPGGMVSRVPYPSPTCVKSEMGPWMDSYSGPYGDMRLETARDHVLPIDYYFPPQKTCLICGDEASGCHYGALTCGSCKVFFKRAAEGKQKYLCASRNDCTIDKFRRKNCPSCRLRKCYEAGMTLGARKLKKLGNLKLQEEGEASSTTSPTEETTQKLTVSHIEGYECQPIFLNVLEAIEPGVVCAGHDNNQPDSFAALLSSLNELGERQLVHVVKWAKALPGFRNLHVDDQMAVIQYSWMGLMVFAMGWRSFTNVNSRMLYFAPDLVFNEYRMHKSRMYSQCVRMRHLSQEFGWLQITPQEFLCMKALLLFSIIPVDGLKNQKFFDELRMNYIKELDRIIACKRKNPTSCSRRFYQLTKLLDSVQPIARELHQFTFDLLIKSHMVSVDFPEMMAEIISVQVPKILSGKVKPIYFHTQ
Put plainly: AR binding inhibitory test (wild-type). Conditions: 100 nM compound; 3 nM radiolabeled mibolerone; 4° C., 3 hr; dextran/charcoal B/F separation; read-out: Inhibitory rate (%) at 100 nM. On the procedure: To a solution containing a wild-type androgen receptor (AR) was added 3 nM radiolabeled mibolerone and 100 nM compound. After the solution was incubated at 4° C. for 3 hr, B (Bound)/F (Free) separation was performed by the dextran/charcoal method. The label count of B was measured, and the inhibitory rate of the compound was calculated.

Assay [2] concerns the target T2, AR (Homo sapiens, UniProt P10275).
T2 construct: expressed in transfected cells; host or cells: Cos-7
T2 sequence (P10275 1-920): T1 sequence (P10275 1-920)
Put plainly: Reporter assay system using Cos7 cell (AR gene + MMTV androgen responsive promoter-luciferase). In kind it is cell-based. The note with it: 100 nM compound, 24 hr; Cos-7 co-transfected with AR and MMTV-luciferase vectors; luciferase activity induced by 1 μM 5α-dihydrotestosterone taken as 100. The procedure: Cos-7(5,000,000 cells) were sown in a flask (150 cm^2), and cultured in a culture medium (DMEM medium containing 10% Dextran Charcoal (DCC)-Fetal Bovine Serum (FBS) and 2 mM glutamine) for 24 hr. A vector DNA containing AR gene, and a vector DNA prepared by binging luciferase gene at the downstream of an androgen responsive promoter derived from MMTV (Mouse Mammary Tumor Virus) were co-transfected by the liposome method. After culture for 4 hr, the cells were harvested, 10,000 cells were plated on a 96 well plate and cultured for 2 hr, after which 1 μM of 5α-dihydrotestosterone or 100 nM of a compound was added thereto. After culture for 24 hr, luciferase activity was determined. The induction rate by the compound was determined with the luciferase activity induced by addition of 1 μM of 5α-dihydrotestosterone as 100.
In general terms: In a reporter assay the amount or activity of a reporter protein is the signal.

Experimental findings from US8013008B2, “Cyclic amine compound” (Takeda Pharmaceutical Company Limited, priority 2006, dated 2011) are described below.

For `C[C@@H]1N(c2ccc(C#N)c(Cl)c2)CC[C@@]1(O)C(F)(F)F` [Example 18, 2-chloro-4-[(2S,3S)-3-hydroxy-2-methyl-3-(trifluoromethyl)pyrrolidin-1-yl]benzonitrile], the inhibition at 0.1 µM in assay [1] was 100%. Moreover, the “Induction rate (%) at 100 nM” value in assay [2] amounted to 89%.

Consider `CC[C@]1(O)CCN(c2cc(F)c(C#N)c(F)c2)[C@H]1C` [Example 7, 4-[(2S,3S)-3-ethyl-3-hydroxy-2-methylpyrrolidin-1-yl]-2,6-difluorobenzonitrile], for which the inhibition at 0.1 µM in assay [1] was determined as 98%. The “Induction rate (%) at 100 nM” value in assay [2] is listed as 107%.

`CC(C)[C@@H]1N(c2cc(F)c(C#N)c(F)c2)CC[C@]1(C)O` [Example 20, 2,6-difluoro-4-[(2S,3S)-3-hydroxy-2-isopropyl-3-methylpyrrolidin-1-yl]benzonitrile]: the inhibition at 0.1 µM in assay [1] was determined as 98%. For the same molecule, in assay [2], the “Induction rate (%) at 100 nM” value amounted to 59%.

For `C[C@@H]1C[C@](C)(O)[C@H](C)N1c1ccc(C#N)c(Cl)c1` [Example 60, 2-chloro-4-[(2S,3S,5R)-3-hydroxy-2,3,5-trimethylpyrrolidin-1-yl]benzonitrile], the inhibition at 0.1 µM in assay [1] was determined as 92%. Moreover, in assay [2], the “Induction rate (%) at 100 nM” value is on record as 37%.

`C[C@@H]1N(c2ccc(C#N)c(F)c2)CC[C@]1(C)O` [Example 1, 2-fluoro-4-[(2S,3S)-3-hydroxy-2,3-dimethylpyrrolidin-1-yl]benzonitrile]: the inhibition at 0.1 µM in assay [1] was 95%. Moreover, the “Induction rate (%) at 100 nM” value in assay [2] stood at 65%.

On to `C[C@@H]1N(c2ccc(C#N)c(F)c2)CC[C@@]1(O)C1CC1` [Example 32, 4-[(2S,3R)-3-cyclopropyl-3-hydroxy-2-methylpyrrolidin-1-yl]-2-fluorobenzonitrile], for which the inhibition at 0.1 µM in assay [1] is 98%. Further, in assay [2], the “Induction rate (%) at 100 nM” value is recorded as 77%.
